{"source": "paper PMC8909834", "about": "“An Orally Bioavailable and Highly Efficacious Inhibitor of CDK9/FLT3 for the Treatment of Acute Myeloid Leukemia” (Cancers, 2022)", "key": {"CDK1B": {"biological_target": "CDK1B (Homo sapiens, UniProt P06493)", "sequence (P06493 whole entry, canonical isoform)": "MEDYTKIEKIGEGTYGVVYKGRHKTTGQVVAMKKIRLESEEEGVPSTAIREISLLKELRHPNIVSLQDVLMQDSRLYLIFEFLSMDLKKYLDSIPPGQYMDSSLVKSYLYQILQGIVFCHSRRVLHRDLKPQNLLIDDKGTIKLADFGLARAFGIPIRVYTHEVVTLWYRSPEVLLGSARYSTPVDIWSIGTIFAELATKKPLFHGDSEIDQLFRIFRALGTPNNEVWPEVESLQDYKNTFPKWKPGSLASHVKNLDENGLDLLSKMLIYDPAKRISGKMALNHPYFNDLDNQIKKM", "sequence (P14635 whole entry partner, canonical isoform)": "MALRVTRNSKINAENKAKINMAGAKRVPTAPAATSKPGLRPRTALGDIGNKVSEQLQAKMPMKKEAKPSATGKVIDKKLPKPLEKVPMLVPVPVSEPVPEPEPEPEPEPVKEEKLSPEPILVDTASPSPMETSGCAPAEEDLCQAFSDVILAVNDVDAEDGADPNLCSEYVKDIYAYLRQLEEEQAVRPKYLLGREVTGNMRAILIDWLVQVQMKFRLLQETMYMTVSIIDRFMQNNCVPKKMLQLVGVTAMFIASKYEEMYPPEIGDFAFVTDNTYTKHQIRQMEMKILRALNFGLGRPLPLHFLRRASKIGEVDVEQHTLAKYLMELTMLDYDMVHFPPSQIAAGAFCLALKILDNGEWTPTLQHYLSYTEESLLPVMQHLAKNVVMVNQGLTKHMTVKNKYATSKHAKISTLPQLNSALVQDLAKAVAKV", "assay": "ADP Glo kinase assay", "assay_type": "biochemical", "details": "calculated from IC50 using the Cheng-Prusoff equation", "experimental": "(§1) Kinase assay. The ADP Glo^TM kinase assay (Promega, Madison, WI, USA) was used to assess the inhibition by CDDD11-8 of CDKs 1, 2, 4, 6, 7, and 9, as well as the mutant isoforms of FLT3. The assays were performed in accord with the manufacturer’s protocol (Promega) as described previously. Briefly, serial three-fold dilutions of CDDD11-8 were prepared in 100% DMSO from a 2 mM stock solution, followed by 1:40 dilution into Milli-Q water. Subsequently, 1 µL of each sample was incubated with 4 µL of kinase mixture containing a particular CDK enzyme and its substrate, standard kinase buffer [3 mM MgCl2, 50 mM HEPES-NaOH pH 7.5, 3 mM MnCl2, 3 µM Na-orthovanadate, 1 mM dithiothreitol (DTT)], kinase dilution buffer (containing 0.25 mg/mL PEG20,000, 50 mM HEPES-NaOH pH 7.5, 1 mM DTT), and ATP at 37 °C for 30 to 40 min. The final reaction mixture contained 0.5% DMSO in all samples, and the applied kinase concentrations were 1, 1, 10, 40, 20, and 50 nM for CDK1, 2, 4, 6, 7, and 9, respectively. The reaction was stopped by adding ADP-Glo reagent and the mixture was incubated further in the dark at room temperature for 40 min. As a final step, kinase detection reagent was added to each mixture and incubated at room temperature for 30 to 60 min. Luminescence was read using an EnVision® multilabel plate reader (PerkinElmer, Beaconsfield, UK), and half-maximum inhibitory concentrations (IC50) were calculated using a non-linear regression model with a variable slope, plotting log (inhibitor concentration) vs. response using the following formula: Ar%=Bottom+Top−Bottom/1+Inhibitor Concentration/IC50^HillSlope where the relative activity Ar (%) is the signal relative to the controls, IC50 is the half maximum concentration, Hillslope is the steepness of the dose-response curve, Top and Bottom are plateaus reflecting the maximum and minimum in responses on the Y-axis (GraphPad Prism version 7, San Diego, CA, USA). Ki values were calculated from the IC50 using the Cheng−Prusoff equation [32]. Extensive specificity assessment was carried out by Reaction Biology Corporation (Malvern, PA, USA) with 369 kinases using 1 µM CDDD11-8 concentration in a Kinase Hotspot radiolabel assay (for experimental details, please see (Reaction Biology https://www.reactionbiology.com/). Subsequently, Ki values were determined for kinases with greater than 90% inhibition."}, "CDK4D1": {"biological_target": "CDK4D1 (Homo sapiens, UniProt P11802)", "sequence (P11802 whole entry)": "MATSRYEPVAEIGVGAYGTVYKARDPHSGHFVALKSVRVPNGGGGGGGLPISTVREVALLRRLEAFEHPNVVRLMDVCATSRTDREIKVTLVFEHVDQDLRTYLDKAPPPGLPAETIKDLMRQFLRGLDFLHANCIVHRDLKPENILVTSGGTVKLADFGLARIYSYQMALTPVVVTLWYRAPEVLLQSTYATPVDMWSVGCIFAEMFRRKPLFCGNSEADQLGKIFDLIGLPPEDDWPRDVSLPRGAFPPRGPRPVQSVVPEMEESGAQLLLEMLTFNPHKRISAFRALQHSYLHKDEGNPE", "sequence (P24385 whole entry partner)": "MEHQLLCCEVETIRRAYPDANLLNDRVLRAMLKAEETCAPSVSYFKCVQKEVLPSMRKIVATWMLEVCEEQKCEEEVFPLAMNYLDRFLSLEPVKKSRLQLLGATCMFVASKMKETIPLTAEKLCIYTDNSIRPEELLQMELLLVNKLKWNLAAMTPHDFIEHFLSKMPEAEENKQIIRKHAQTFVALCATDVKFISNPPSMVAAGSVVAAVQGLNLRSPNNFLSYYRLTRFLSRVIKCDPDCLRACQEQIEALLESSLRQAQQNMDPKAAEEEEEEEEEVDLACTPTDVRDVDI", "assay": "ADP Glo kinase assay", "assay_type": "biochemical", "details": "calculated from IC50 using the Cheng-Prusoff equation", "experimental": "as §1"}, "CDK6D3": {"biological_target": "CDK6D3 (Homo sapiens, UniProt Q00534)", "sequence (Q00534 whole entry)": "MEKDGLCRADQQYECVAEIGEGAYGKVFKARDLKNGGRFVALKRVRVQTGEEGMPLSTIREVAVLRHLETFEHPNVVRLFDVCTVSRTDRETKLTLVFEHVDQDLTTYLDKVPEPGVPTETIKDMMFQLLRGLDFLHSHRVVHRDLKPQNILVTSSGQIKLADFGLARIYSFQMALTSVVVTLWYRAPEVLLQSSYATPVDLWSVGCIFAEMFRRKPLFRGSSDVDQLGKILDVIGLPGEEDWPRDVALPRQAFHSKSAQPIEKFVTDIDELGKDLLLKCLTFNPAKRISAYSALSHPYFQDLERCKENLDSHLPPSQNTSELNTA", "sequence (P30281 whole entry partner)": "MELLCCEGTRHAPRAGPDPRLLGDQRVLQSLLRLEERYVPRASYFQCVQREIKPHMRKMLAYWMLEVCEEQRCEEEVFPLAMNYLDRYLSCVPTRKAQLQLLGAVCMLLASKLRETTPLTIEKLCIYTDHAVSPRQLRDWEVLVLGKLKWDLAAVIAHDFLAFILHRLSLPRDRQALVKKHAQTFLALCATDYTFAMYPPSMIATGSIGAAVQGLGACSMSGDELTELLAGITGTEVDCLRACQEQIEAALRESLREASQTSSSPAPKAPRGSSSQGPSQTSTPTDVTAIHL", "assay": "ADP Glo kinase assay", "assay_type": "biochemical", "details": "calculated from IC50 using the Cheng-Prusoff equation", "experimental": "as §1"}, "FLT3": {"biological_target": "T1, FLT3 (Homo sapiens, UniProt P36888)", "T1 construct": "purchased Reaction Biology Corporation (Kinase HotSpot)", "assay": "ADP Glo kinase assay", "assay_type": "biochemical", "details": "calculated from IC50 using the Cheng-Prusoff equation", "experimental": "as §1"}, "FLT3-D835Y": {"biological_target": "FLT3-D835Y (Homo sapiens, UniProt P36888, D835Y)", "assay": "ADP Glo kinase assay", "assay_type": "biochemical", "details": "calculated from IC50 using the Cheng-Prusoff equation", "experimental": "as §1"}, "FLT3-ITD": {"biological_target": "FLT3-ITD (Homo sapiens, UniProt P36888, ITD)", "assay": "ADP Glo kinase assay", "assay_type": "biochemical", "details": "calculated from IC50 using the Cheng-Prusoff equation", "experimental": "as §1"}, "MOLM-13 cells": {"test_system": "MOLM-13 cells", "assay": "Cell cycle analysis (PI, flow cytometry)", "assay_type": "cell-based", "details": "MOLM-13, 1 µM, 24 h", "experimental": "(§2) Detection of apoptosis and cell cycle analysis. Detection of apoptosis and cell cycle analysis were performed as described previously. Cells (1 × 10^5 cells/mL) were seeded into a six-well plate (Corning) and incubated overnight at 37 °C, 5% CO2 prior to incubation with different concentrations of CDDD11-8 or control (0.1% final DMSO concentration) for 6, 24, or 72 h. For washout experiments, cells were incubated with compounds for 6 h, then washed three times with 1 × PBS interspersed with centrifugation at 300× g for 5 min to remove compound. After incubation at 37 °C under 5% CO2, cells were centrifuged at 300× g for 5 min to form a pellet, washed with PBS, and incubated with Annexin V/PI (Becton Dickenson, Franklin Lakes, NJ, USA) for 15 min in the dark. For cell cycle analysis, cells were fixed with 70% ethanol (v/v, 4 °C) and incubated in the dark with cell cycle staining solution (50 µg/mL PI, 0.1 mg/mL RNase A, 0.05% Triton X-100) for 1.5 h. Samples were analyzed using a CytoFlex flow cytometer (Beckman Coulter, Brea, CA, USA). Data were analyzed with CytExpert software version 2.1 (Beckman Coulter, Brea, CA, USA)."}, "MV4-11 cells": {"test_system": "MV4-11 cells", "assay": "Cell cycle analysis (PI, flow cytometry)", "assay_type": "cell-based", "details": "24 h", "experimental": "as §2"}, "Blood to plasma ratio": {"assay": "Blood to plasma ratio", "assay_type": "in vitro ADME", "details": "mouse, in mice"}}}
{"smiles": "Cc1cnc(N[C@H]2CC[C@H](N)CC2)nc1-c1cnc2ccc(-c3ccccc3)cn12", "note": "[CDDD11-8]", "values": [{"measurement": "Ki", "setting": "CDK1B", "value": "> 1000", "unit": "nM"}, {"measurement": "Ki", "setting": "CDK4D1", "value": "> 1000", "unit": "nM"}, {"measurement": "Ki", "setting": "CDK6D3", "value": "> 1000", "unit": "nM"}, {"measurement": "Ki", "setting": "FLT3", "value": 46, "unit": "nM"}, {"measurement": "Ki", "setting": "FLT3-D835Y", "value": 7, "unit": "nM"}, {"measurement": "Ki", "setting": "FLT3-ITD", "value": 13, "unit": "nM"}, {"measurement": "increase of sub-G1 cell population", "setting": "MOLM-13 cells", "value": "greater than 40 fold"}, {"measurement": "increase in the G1 population (increment)", "setting": "MV4-11 cells; MV4-11, 0.3 µM", "value": 16, "unit": "%"}, {"measurement": "increase of sub-G1 cell population", "setting": "MV4-11 cells; MV4-11, 1 µM", "value": "greater than 40 fold"}, {"measurement": "blood plasma ratio", "setting": "Blood to plasma ratio", "value": 0.71}]}
